Assay results as given in ChEMBL document CHEMBL3608265, “Synthesis and inhibitory activity of substrate-analog fructosyl peptide oxidase inhibitors” (Bioorg Med Chem Lett, 2015).
Active and inactive are the calls of the source. The rule behind the calls is not given here.

Tests used:
Coniochaeta [1] = assay: Competitive inhibition of Coniochaeta sp. FPOX-C CFP-T7 mutant using Fru-ValHis as substrate at 5 to 25 uM by Lineweaver-Burk plot analysis
[2] = Inhibition of Coniochaeta sp. FPOX-C CFP-T7 mutant using Fru-ValHis as substrate by Dixon plot analysis
Coniochaeta [3] = assay: Competitive inhibition of Coniochaeta sp. FPOX-C CFP-T7 mutant using Fru-ValHis as substrate at 250 to 1250 uM by Lineweaver-Burk plot analysis
Coniochaeta [4] = assay: Competitive inhibition of Coniochaeta sp. FPOX-C CFP-T7 mutant using Fru-ValHis as substrate at 20 to 100 uM by Lineweaver-Burk plot analysis

SMILES | inhibition (Coniochaeta [1]) | Ki [2] [µM] | inhibition (Coniochaeta [3]) | inhibition (Coniochaeta [4])
CC(C)[C@H](SC[C@@]1(O)OC[C@@H](O)[C@@H](O)[C@@H]1O)C(=O)O | Active | 11.1 |  | 
N[C@@H](CCCCSC[C@@]1(O)OC[C@@H](O)[C@@H](O)[C@@H]1O)C(=O)O |  | 782 | Active | 
CC(C)[C@H](SC[C@@]1(O)OC[C@@H](O)[C@@H](O)[C@@H]1O)C(=O)N[C@@H](Cc1c[nH]cn1)C(=O)O |  | 66.8 |  | Active
